Test results: PubChem BioAssay (NCI)
Where “and” joins values, the source holds several entries; their conditions need not be identical. Equal entries are not always repeated.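 Test compounds were applied to cells in 96-well plates for 48 hours at 5 doses. TGI: total growth inhibition.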

Assays:
Assay in all cases: NCI-60 cell line screen, 48 h
A549 NSCLC = system: A549 NSCLC
COLO 205 colon = system: COLO 205 colon
DU-145 prostate = system: DU-145 prostate
LOX IMVI melanoma = system: LOX IMVI melanoma
M14 melanoma = system: M14 melanoma
MOLT-4 leukemia = system: MOLT-4 leukemia
SF-295 CNS = system: SF-295 CNS

SMILES	TGI (A549 NSCLC) [µM]	TGI (COLO 205 colon) [µM]	TGI (DU-145 prostate) [µM]	TGI (LOX IMVI melanoma) [µM]	TGI (M14 melanoma)	TGI (MOLT-4 leukemia) [µM]	TGI (SF-295 CNS) [µM]
CC[C@@]1(O)C(=O)OCc2c1cc1n(c2=O)Cc2c-1nc1ccccc1c2/C=N/NC(=O)c1ccc(N)cc1	> 100	> 100	16.8	0.5	1.23 µM	0.287	14.7
O=C1CC(=O)NC(=NNS(=O)(=O)c2ccc(Cl)cc2)N1	> 100	> 100	> 100		> 100 µM	> 100	> 100
CNC1(C(=O)O)CC1	> 100		> 100	> 100	> 100 µM	> 100	> 100
O=C(c1cc2c(c3ccccc13)NC1(CCCCC1)N=C2C(F)(F)F)C(F)(F)F	16.3	18.1	19.6	12.1	18.1 µM	14.5	10.9
Cc1ccc(Nc2nc3c(=O)n(C)c(=O)n(C)c3nc2Nc2ccc(C)cc2)cc1	52.9	16	> 100	22.6		> 100	45.7
COc1cc2c(c(OC)c1OC)-c1ccc(SC)cc1C(O)CC2 (configuration not stated)	34.6	0.179	> 100	74.1	> 100 µM and 34.9 µg/mL		83.7
CCOC(=O)NN(C(=O)OCC)c1c(C)cc(C)cc1C	> 100	> 100	> 100	> 100	> 100 µM	> 100	
Cc1ccc(N(C)S(=O)(=O)c2ccccc2[N+](=O)[O-])cc1	> 100	> 100	> 100	> 100	44.5 µM		> 100
Cc1ccc(N/C(SCc2ccccc2)=C(\C(Cl)=C(Cl)Cl)[N+](=O)[O-])c(C)c1	90.6	31.6	> 100		34 µM	> 100	94.9
CN1CC2CN(Cc3ccccc3)CCN2c2cccnc21 (configuration not stated)	> 100	> 100		49.4	> 100 µM	> 100	> 100
CCOC(=O)c1nc2ccc(C(F)(F)F)cc2nc1Oc1ccc(C(=O)OC)cc1		> 100	> 100	> 100	> 100 µM	> 100	> 100
ClCCCCCc1c2nc(c(CCCCCCl)c3ccc([nH]3)c(CCCCCCl)c3ccc([nH]3)c(CCCCCCl)c3nc1C=C3)C=C2	> 100	> 100		> 100	> 100 µM	> 100	> 100
CCCCCCCCCCCCCCCCCCOCC(O)COP(=O)(O)OCC1OC(n2ccc(N)nc2=O)C(O)C1O (configuration not stated)	> 100	29.5	> 100	31.1		20	68.8
N#Cc1c(-c2ccccc2)c(CN2CCCCC2)c(=O)n2c1[nH]c1ccccc12	> 100	64		50.8	> 100 µM	45.4	> 100
Cc1cccc(N/C(Sc2ccccc2)=C(/C(Cl)=C(Cl)Cl)[N+](=O)[O-])c1	47.4	29	62.2		36.7 µM	> 100	36.2
